# Experimental data taken from patent EP2392327A1, “Use of orlistat for the anti-parasitic treatment of a parasitic disease” (Universitätsmedizin der Johannes Gutenberg-Universität Mainz, priority 2010, dated 2011).
# Read-outs that look alike come from different tables or passages of the source.
# How the values were obtained:
# HCT-8 cells = assay: Cytotoxicity in MTS/PMS assay on HCT-8 cells; type: cell-based; details: HCT-8 cultures, 48 hrs
# Protocol: Cells were passaged in maintenance medium at 37°C in a 6% CO2/94% humidified air incubator.
# Cytotoxicity of Orlistat was tested in an MTS/PMS assay (Hommer et al., 2003). Orlistat stock solution and DMSO solvent (control) were diluted in culture medium and serial dilutions were applied to HCT-8 cultures for 48 hrs.
# Cryptosporidium parvum [1] = assay: In vitro inhibition of the development of Cryptosporidium parvum in HCT-8 cells (cell culture-based enzyme-immune assay)
# Protocol: In a cell culture-based enzyme-immune assay increasing concentrations of Orlistat (1 - 15 µM) diluted in culture medium were tested for the inhibition of the development of Cryptosporidium parvum. The parasites were allowed to develop in HCT-8 cells for 48 hrs. The optical readings were converted into parasite growth relative to mean of the controls [%]. […] Orlistat (# 04139, Sigma, Deisenhofen, Germany) was dissolved in DMSO at 10 mM (stock solution). […] Cells were passaged in maintenance medium at 37°C in a 6% CO2/94% humidified air incubator. HCT-8 cells were seeded in 96-well culture plates and infected with Cryptosporidium parvum oocysts (IOWA strain) as described (Hommer et al., 2003). At 2 hrs post infection (p.i.) non-invaded parasites were removed by washing. Orlistat diluted in culture medium or medium alone (negative control) were added. After a total of 48 hrs p.i. culture plates were washed with PBS and fixed with methanol for 15 min. Intracellular stages of Cryptosporidium parvum were detected by an enzyme-immune assay using a monoclonal antibody (McDonald et al., 1995) as described previously (Hommer et al., 2003). Experiments were performed in six-fold replica. Optical density (OD) readings were corrected by the OD of non-infected HCT-8 cells. The means of the infected controls without Orlistat were taken as 100% growth rate. […]
# Cryptosporidium parvum [2] = details: 1.5x10^6 parasites, 5.0 mg Orlistat per gram dry matter
# Source text: Error bars represent standard deviations. […] Error bars represent standard deviations.
# [3] = cited from earlier work
# [4] = within the physiological pH range; cited from earlier work
smiles,measurement,setting,value
CCCCCCCCCCC[C@@H](C[C@@H]1OC(=O)[C@H]1CCCCCC)OC(=O)[C@H](CC(C)C)NC=O [Orlistat],cytotoxic effect on HCT-8 cells detected at concentrations,HCT-8 cells,> 20 µM
same,inhibition at 15 µM,"Cryptosporidium parvum [1]; Cryptosporidium parvum, 15 µM, 48 hrs p.i., HCT-8 host cells, compared to the infected but untreated controls, read-out: inhibition rate",> 90%
same,reduction of parasite development in the HCT-8 host cells,"Cryptosporidium parvum [1]; all Orlistat concentrations (1 - 15 µM), p < 0.0002","concentration dependent, statistically significant reduction"
same,reduction of total parasite excretion by a factor,"Cryptosporidium parvum [2]; interferon-gamma deficient mice, p < 0.0006",125
same,reduction of total parasite excretion by a factor,"Cryptosporidium parvum [2]; interleukin-12 deficient mice, p < 0.008",over 80
same,solubility in chloroform,[3]; chloroform,freely soluble
same,solubility in methanol and ethanol,[3]; methanol and ethanol,very soluble
same,solubility in water,[3]; water,practically insoluble
same,pKa,[4],no pKa within the physiological pH range
